From patent US20240408082A1, “METHODS FOR TREATING CANCERS AND TUMORS” (BEYONDSPRING PHARMACEUTICALS, INC., priority 2021, published 2024)
Several values for one entry are separate records, joined by “and”; a condition that tells them apart may be missing. Equal entries are not always repeated.

Columns and labels:
Format in all cases: cell-based
[1] = tested on: 87 PDX models of various histotypes; assay: 3D clonogenic assay, Example 1, all PDX models
Experimental: (§1) In the present study, plinabulin was characterized for its ability to inhibit anchorage independent growth and ex vivo colony formation of tumor cells in semi-solid medium. The compound was investigated in 87 out of 93 originally planned tumor xenografts representing all major cancer types using a 3D clonogenic assay in a 96-well format with colony count based on image analysis as read-out. By using this assay, the investigational compound was assessed for the ability to inhibit anchorage independent growth and ex vivo colony formation of tumor cells in semi-solid medium.
(§2) A master stock solution of plinabulin was prepared by dissolving the compound in DMSO at a concentration of 9.9 mM. Working stock solutions were prepared by diluting the master stock solution with DMSO to a concentration of 0.99 mM (330-fold the highest test concentration). Small aliquots of the master and working stock were stored at −20° C. On each day of an experiment, an aliquot of the working stock was used and stored at room temperature prior to and during treatment. All liquid handling steps were performed using a Tecan Freedom EVO 200 robotic platform. First, serial dilutions of the working stock solution were done in DMSO. The DMSO dilutions were then diluted 1:22 into cell culture medium (IMDM, supplemented with 20% (v/v) fetal calf serum, and 50 μg/ml gentamicin) in an intermediate dilution plate. Finally, 10 μl taken from the intermediate dilution plate were transferred to 140 μl/well of the final assay plate. Thus, the DMSO working stock was diluted 1:330, and the DMSO concentration in the assay was 0.3% v/v in all wells.
(§3) Plinabulin was investigated in 87 PDX models representing a number of cancer types. Tumors were passaged as subcutaneous xenografts in NMRI nu/nu mice. At a tumor volume of 400-1000 mm^3 tumor-bearing mice were euthanized and tumors were collected under sterile conditions without delay according to relevant SOPs and the relevant animal welfare guidelines published by the FELASA and the GV-SOLAS. Tumors were mechanically disaggregated and subsequently incubated with an enzyme cocktail consisting of collagenase type IV (41 U/ml), DNase I (125 U/ml), hyaluronidase type III (100 U/ml), and dispase II (1 U/ml) in RPMI 1640 medium (Life Technologies) at 37° C. for 60-120 minutes. Cells were passed through sieves of 100 μm and 40 μm mesh size (Cell Strainer, BD Falcon™), and washed with RPMI 1640 medium (Biochrom). The percentage of viable cells was determined in a Neubauer-hemocytometer using trypan blue exclusion. Aliquots of the cells were frozen down and stored in a liquid nitrogen vapor phase. On each day of an experiment, a frozen aliquot of tumor cells was thawed and used for the preparation of assay plates.
(§4) The clonogenic assay was carried out in a 96 well plate format using ultra low attachment plates. For each test, cells were prepared as described above and assay plates were prepared as follows: each test well contained a layer of semi-solid medium with tumor cells (50 μl), and a second layer of medium supernatant with or without test compound (100 μl). The cell layer consisted of 2.5-12.5×10^3 tumor cells per well, which were seeded on day 0 (d0) in 50 μl/well cell culture medium (IMDM, supplemented with 20% (v/v) fetal calf serum, 50 μg/ml gentamicin, and 0.4% (w/v) agar). After 24 h, the soft-agar layer was covered with 90 μl of the same culture medium without agar. Seven days after seeding 10 μl of test compound or control medium was added, and left on the cells for 24 h. Every 96 well plate included six DMSO-treated control wells and drug-treated wells in duplicate at 9 concentrations. After the incubation time of 24 h the supernatant (90 μl medium without agar +10 μl compound/control) was changed against drug free medium and incubated until the end of the study. Cultures were incubated at 37° C. and 7.5% CO2 in a humidified atmosphere 13 days in total and monitored closely for colony growth using an inverted microscope. […]

small cell lung cancer [2] = assay: 3D clonogenic assay, Example 1, small cell lung cancer; details: n=7 models
Experimental: as §1
(§5) A master stock solution of plinabulin was prepared by dissolving the compound in DMSO at a concentration of 9.9 mM. Working stock solutions were prepared by diluting the master stock solution with DMSO to a concentration of 0.99 mM (330-fold the highest test concentration). Small aliquots of the master and working stock were stored at −20° C. […]
(§6) Plinabulin was investigated in 87 PDX models representing a number of cancer types. […] The percentage of viable cells was determined in a Neubauer-hemocytometer using trypan blue exclusion. […]
(§7) The clonogenic assay was carried out in a 96 well plate format using ultra low attachment plates. […] Cultures were incubated at 37° C. and 7.5% CO2 in a humidified atmosphere 13 days in total and monitored closely for colony growth using an inverted microscope. […]

bladder cancer = assay: 3D clonogenic assay, Example 1, bladder cancer; details: n=9 models
Experimental: as §1, §5, §6, §7

soft tissue sarcoma = assay: 3D clonogenic assay, Example 1, soft tissue sarcoma; details: n=10 models
Experimental: as §1, §5, §6, §7

BXF 1258 = assay: 3D clonogenic assay, Example 1, BXF 1258; details: model BXF 1258
Experimental: as §1, §5, §6, §7

BXF 2211 = assay: 3D clonogenic assay, Example 1, BXF 2211; details: model BXF 2211
Experimental: as §1, §5, §6, §7

BXF 2775 = assay: 3D clonogenic assay, Example 1, BXF 2775; details: model BXF 2775
Experimental: as §1, §5, §6, §7

SXFS 627 = assay: 3D clonogenic assay, Example 1, SXFS 627; details: model SXFS 627
Experimental: as §1, §5, §6, §7

melanoma models [3] = assay: 3D clonogenic assay, Example 1, melanoma models; details: n=19 models
Experimental: as §1, §5, §6, §7

[4] = tested on: 68 PDX models of various histotypes; assay: 3D clonogenic assay, Example 2, all PDX models
Experimental: (§8) The present study investigated plinabulin for anticancer activity ex vivo in 68 out of 71 originally planned patient-derived xenograft (PDX) models representing major cancer types. Experiments were performed using a 3D clonogenic assay in a 96-well format with colony count based on image analysis as a read-out. By using this assay, the investigational compound was assessed for the ability to inhibit anchorage independent growth and ex vivo colony formation of tumor cells in semi-solid medium.
as §2, with “1:22 into the cell culture” for “1:22 into cell culture”, “was diluted at 1:330, and” for “was diluted 1:330, and”
as §3, with “68” for “87”
as §4, with “above (Section 6.6)” for “above”, “2.5-12.5·10^3” for “2.5-12.5×10^3”

small cell lung cancer [5] = assay: 3D clonogenic assay, Example 2, small cell lung cancer; details: n=7 models
Experimental: as §8, §5
(§9) Plinabulin was investigated in 68 PDX models representing a number of cancer types. […] The percentage of viable cells was determined in a Neubauer-hemocytometer using trypan blue exclusion. […]
as §7

osteosarcoma = assay: 3D clonogenic assay, Example 2, osteosarcoma; details: n=3 models
Experimental: as §8, §5, §9, §7

gastric cancer (Asian) = assay: 3D clonogenic assay, Example 2, gastric cancer (Asian); details: n=3 models
Experimental: as §8, §5, §9, §7

[6] = tested on: central nervous system cancer; assay: 3D clonogenic assay, Example 2, central nervous system cancer; details: n=6 models
Experimental: as §8, §5, §9, §7

[7] = tested on: small cell lung cancer model LXFS 2156; assay: 3D clonogenic assay, Example 2, LXFS 2156
Experimental: as §8, §5, §9, §7

[8] = tested on: small cell lung cancer model LXFS 650; assay: 3D clonogenic assay, Example 2, LXFS 650
Experimental: as §8, §5, §9, §7

[9] = tested on: osteosarcoma model SXFO 1186; assay: 3D clonogenic assay, Example 2, SXFO 1186
Experimental: as §8, §5, §9, §7

[10] = tested on: (Asian) gastric cancer model GXA 3067; assay: 3D clonogenic assay, Example 2, GXA 3067; details: read-out: abs. IC50
Experimental: as §8, §5, §9, §7

melanoma models [11] = assay: 3D clonogenic assay, Example 2, melanoma models; details: n=9 models
Experimental: as §8, §5, §9, §7

[12] = tested on: Her2-enriched breast cancer models; assay: 3D clonogenic assay, Example 2, Her2-enriched breast cancer models; details: n=6 models
Experimental: as §8, §5, §9, §7

[13] = tested on: soft tissue sarcoma models; assay: 3D clonogenic assay, Example 2, soft tissue sarcoma models; details: n=8 models
Experimental: as §8, §5, §9, §7

[14] = tested on: small cell lung cancer model LXFS 1129; assay: 3D clonogenic assay, Example 2, LXFS 1129
Experimental: as §8, §5, §9, §7

[15] = tested on: Triple negative breast cancer (MAXFTN); assay: 3D clonogenic assay, Example 2, triple negative breast cancer; details: based on IC70, FIG. 7
Experimental: as §8, §5, §9, §7

bladder cancer models = assay: 3D clonogenic assay, Example 2, bladder cancer models; details: n=6 models
Experimental: as §8, §5, §9, §7

[16] = tested on: gastric cancer models (Caucasian); assay: 3D clonogenic assay, Example 2, gastric cancer models (Caucasian); details: n=3 models
Experimental: as §8, §5, §9, §7

[17] = sigmoidal concentration-effect curves

CC(C)(C)c1[nH]cnc1/C=c1\[nH]c(=O)/c(=C/c2ccccc2)[nH]c1=O [plinabulin, (3Z,6Z)-3-Benzylidene-6-{[5-(2-methyl-2-propanyl)-1H-imidazol-4-yl]methylene}-2,5-piperazinedione]
Sensitive Tumors, Number, Based on Abs. IC70 ([1]; 87 PDX models): 40 out of 87 and 40/87
Sensitive Tumors, Number, Based on Rel. IC70 ([1]; 87 PDX models): 23/87
Sensitive Tumors, Percentage, Based on Abs. IC70 ([1]; 87 PDX models): 46%
Sensitive Tumors, Percentage, Based on Rel. IC70 ([1]; 87 PDX models): 26%
geometric mean absolute IC70, tumor colony formation ([1]; all 87 PDX models, 24 h treatment, 13 days culture): 166 nM
Fold difference of IC70 of sensitive tumors vs. all tumors, Based on Abs. IC70 ([1]; geometric means): 6.8 fold
Fold difference of IC70 of sensitive tumors vs. all tumors, Based on Rel. IC70 ([1]; geometric means): 4.6 fold
inhibition of tumor colony formation (in words) [1, 17]: inhibited tumor colony formation in a concentration-dependent manner in almost all cell lines
geom. mean absolute IC70 (small cell lung cancer [2]): 35 nM
geom. mean absolute IC70 (bladder cancer): 38 nM
geom. mean absolute IC70 (soft tissue sarcoma): 57 nM
absolute IC70 (BXF 1258): 3 nM
absolute IC70 (BXF 2211): 3 nM
absolute IC70 (BXF 2775): 3 nM
absolute IC70 (SXFS 627): 3 nM
geometric mean absolute IC70 (melanoma models [3]): 1105 nM
Sensitive Tumors, Number, Based on Abs. IC70 ([4]; 68 PDX models): 9 out of 68 and 9/68
Sensitive Tumors, Number, Based on Rel. IC70 ([4]; 68 PDX models): 27/68
Sensitive Tumors, Percentage, Based on Abs. IC50 ([4]; 68 PDX models): 35%
Sensitive Tumors, Percentage, Based on Abs. IC70 ([4]; 68 PDX models): 13%
Sensitive Tumors, Percentage, Based on Rel. IC50 ([4]; 68 PDX models): 50%
Sensitive Tumors, Percentage, Based on Rel. IC70 ([4]; 68 PDX models): 40%
geometric mean absolute IC70, tumor colony formation ([4]; all 68 PDX models, treatment from day 7 to day 8): 1780 nM
IC50 ([4]; all 68 PDX models, treatment from day 7 to day 8, read-out: geometric mean absolute IC50, tumor colony formation): 600 nM
Fold difference of IC50 of sensitive tumors vs. all tumors, Based on Abs. IC50 ([4]; geometric means): 10.7 fold
Fold difference of IC50 of sensitive tumors vs. all tumors, Based on Rel. IC50 ([4]; geometric means): 3.4 fold
Fold difference of IC70 of sensitive tumors vs. all tumors, Based on Abs. IC70 ([4]; geometric means): 27.1 fold
Fold difference of IC70 of sensitive tumors vs. all tumors, Based on Rel. IC70 ([4]; geometric means): 4.6 fold
inhibition of tumor colony formation (in words) [4, 17]: inhibited tumor colony formation in a concentration-dependent manner in almost all cell lines
geom. mean abs. IC70 (small cell lung cancer [5]): 385 nM
IC50 (small cell lung cancer [5]; read-out: geom. mean abs. IC50): 74 nM
geom. mean abs. IC70 (osteosarcoma): 624 nM
IC50 (osteosarcoma; read-out: geom. mean abs. IC50): 117 nM
geom. mean abs. IC70 (gastric cancer (Asian)): 319 nM
IC50 (gastric cancer (Asian); read-out: geom. mean abs. IC50): 166 nM
geom. mean abs. IC70 [6]: 1521 nM
IC50 ([6]; read-out: geom. mean abs. IC50): 426 nM
abs. IC70 [7]: 15 nM
IC50 ([7]; read-out: abs. IC50): 7 nM
abs. IC70 [8]: 32 nM
IC50 ([8]; read-out: abs. IC50): 22 nM
abs. IC70 [9]: 27 nM
IC50 ([9]; read-out: abs. IC50): 19 nM
IC50 [10]: 26 nM
geometric mean absolute IC70 (melanoma models [11]): > 3000 nM
IC50 (melanoma models [11]; read-out: geom. mean abs. IC50): 1370 nM
geometric mean absolute IC70 [12]: > 3000 nM
IC50 ([12]; read-out: geom. mean abs. IC50): 2250 nM
geometric mean absolute IC70 [13]: > 3000 nM
IC50 ([13]; read-out: geom. mean abs. IC50): 2580 nM
abs. IC70 [14]: 32 nM
sensitivity to plinabulin (in words) [15]: sensitive
geometric mean absolute IC70 (bladder cancer models): > 3000 nM
geometric mean absolute IC70 [16]: > 3000 nM
